One data set deals with RSV A2. In words: RSV NHBE EC50, RSV A2 antiviral assay. It is filed as cell-based. Conditions: for EC50: human respiratory syncytial virus, 96 h, RSV A2 in NHBE cells, 4 days. The protocol: Normal human bronchial epithelial (NHBE) cells were purchased from Lonza (Walkersville, MD, Cat #CC-2540) and cultured in Bronchial Epithelial Growth Media (BEGM) (Lonza, Walkersville, MD, Cat #CC-3170). The cells were passaged 1-2 times per week to maintain <80% confluency. The NHBE cells were discarded after 6 passages in culture.
To conduct the RSV A2 antiviral assay, NHBE cells were plated in 96-well plates at a density of 7,500 cells per well in BEGM and allowed to attach overnight at 37° C. Following attachment, 100 μL of cell culture media was removed and 3-fold serially diluted compound was added using a Hewlett-Packard D300 Digital Dispenser. The final concentration of DMSO was normalized to 0.05%. Following compound addition, the NHBE cells were infected by the addition of 100 μL of RSV A2 at a titer of 1×10^4.5 tissue culture infectious doses/mL in BEGM and then incubated at 37° C. for 4 days. The NHBE cells were then allowed to equilibrate to 25° C. and cell viability was determined by removing 100 μL of culture medium and adding 100 μL of Cell-Titer Glo viability reagent. The mixtures were incubated for 10 minutes at 25° C., and the luminescence signal was quantified on an Envision luminescence plate reader.

The test system of another data set is HRV16. The experiment in a line: HRV16 HeLa EC50. Conditions: for EC50: Human rhinovirus sp., HRV16, H1-HeLa cells, 96 h, 33° C. It is filed as cell-based, human rhinovirus. The protocol: H1-HeLa cells, cultured in complete DMEM medium containing 10% heat-inactivated FBS and 1% Penicillin/Streptomycin, were seeded in 96 well plates at 3000 cells/well one day prior to compound dosing and infection. The antiviral activity of each compound was measured in triplicate. Compounds were added directly to the cell cultures in serial 3-fold dilutions using the HP300 digital dispenser (Hewlett Packard, Palo Alto, CA) immediately prior to infection. The plates were transferred to BSL-2 containment and the appropriate dilution of virus stock, previously determined by titration and prepared in cell culture media, was added to test plates containing cells and serially diluted compounds. Each plate included 6 wells of infected untreated cells and 6 wells of uninfected cells that served as 0% and 100% virus inhibition control, respectively. Following the infection, test plates were incubated for 96 h in a tissue culture incubator set to 33° C./5% CO2. Following incubation, the H1-HeLa cells were removed from incubation and allowed to equilibrate to 25° C. Cell viability was determined by removing 100 μL of culture medium and adding 100 μL of Cell-Titer Glo viability reagent. The mixtures were incubated on a shaker for 10 minutes at 25° C., and the luminescence signal was quantified on an Envision luminescence plate reader.

For the next data set, the system named is DENV2 replicon. In words: DENV-2 Huh-7 Rep EC50. It is filed as cell-based, dengue virus. Particulars: for EC50: Dengue virus, Huh-7 cells containing DENV2 replicon, 48 hours, read-out: DENV Huh7 REP EC50. The protocol:
In 384 well plates (Greiner, Cat #781091), compounds were acoustically transferred at 200 nl per well in a 8 compound (4 replicates) or 40 compound dose response format (3 replicates). For all plates tested, Balapiravir, GS-5734 and NITD008 were included as positive inhibition controls alongside 0% inhibition, DMSO-only negative control wells. Following compound addition, Huh-7 cells containing the DENV2 replicon construct were harvested following standard cell culture procedures and were adjusted to a concentration of 1.25E5 cells/mL in cell culture media composed of cDMEM without genticin. 40 μL of the cell stock was then added to each well for a final cell density of 5,000 cells/well. Cell and compound mixtures were incubated at 37° C./5% CO2 for 48 hours. Prior to harvesting cells, EnduRen Live Cell Substrate (Promega, Cat #E6481) was prepared by suspending 3.4 mg into 100 uL of DMSO to generate a 60 mM stock solution. The stock solution was then diluted 1:200 in pre-warmed cDMEM and 10 uL of this diluted solution was added to each well of the 384 well plates. Plates were then centrifuged at 500 rpm briefly and were placed on a plate shaker for 2 min. Following mixing, plates were incubated at […] for 1.5 hours prior to measuring luminescence on an Envision luminometer.
For orientation: Replicon systems follow genome replication, usually without infectious particles.

The next data set is described as follows: NHBE cytotoxicity assay. It is filed as cell-based. Particulars: human, normal bronchial epithelial (NHBE) cells. The protocol: Normal human bronchial epithelial (NHBE) cells were purchased from Lonza (Walkersville, MD, Cat #CC-2540) and cultured in Bronchial Epithelial Growth Media (BEGM) (Lonza, Walkersville, MD, Cat #CC-3170). The cells were passaged 1-2 times per week to maintain <80% confluency per manufacturer's protocol. The NHBE cells were discarded after 5 passages in culture.
Following attachment, 3-fold serially diluted compound was added using a Hewlett-Packard D300 Digital Dispenser (Hewlett Packard, Palo Alto, CA) in triplicate. The final concentration of DMSO was normalized to 1.0%. Following compound addition, NHBE or SAEC cells were incubated at 37° C. for 5 days. The NHBE or SAEC cells were then allowed to equilibrate to 25° C. and cell viability was determined by removing 100 μL of culture medium and adding 100 μL of Cell-Titer Glo viability reagent (Promega, Madison, WI). The mixtures were incubated for 10 minutes at 25° C., and the luminescence signal was quantified on an Envision luminescence plate reader (PerkinElmer, Waltham, MA). Percent viability values were determined by normalization to 1.0% DMSO-only control wells with background luminescent signal subtracted out.

The next data set can be described thus: Huh-7 cytotoxicity assay. It is filed as cell-based. Conditions: human, Huh7 cells. The protocol: Compounds were tested in a high-throughput 384-well assay format for cytotoxicity in Huh7 cells (Hepatocarcinoma cell line). Cells were diluted in media (DMEM (15-018-CM), 10% FBS, 1% NEAA, 1% PSG) to 16.6K cells/mL and plated at 90 uL/well into 384 well poly-D-lysine coated assay plates and placed in an incubator at 37° C. and 5% CO2. Compounds were serially diluted (1:3) in 100% DMSO in 384-well plates in quadruplicate. DMSO and 2 mM Puromycin were included as negative and positive controls respectively. 24 hours after cell plating, a 384 channel pipettor was used to transfer 0.4 uL from the compound plate to the assay plate. Assay plates were returned to the incubator. After 5 days, assay plates were washed with 80 uL/well of PBS before addition of 20 μL of Cell Titer Glo. Assay plates were read on the Envision plate reader. […] CC50 values were calculated in Accord (on-line tool) using a one-site dose-response model to generate sigmoidal curve fits.

Structures are written as SMILES.

What is called EC50 is the concentration that produces a half-maximal response. Usually CC50 stands for the concentration that lowers cell viability or growth by half. Consider `CCOC(=O)[C@H](C)NP(=O)(OC[C@@]1(C#N)O[C@@H](c2ccc3c(N)ncnn23)[C@H](O)[C@@H]1O)Oc1ccccc1` (stereo partly drawn) [Compound 1, reference compound], for which the half-maximal effective concentration (EC50) with RSV A2 worked out at 549 nM; in the data set with HRV16, 959 nM; in the data set with DENV2 replicon, 73.4 µM. Besides, the CC50 at 5 days in the data set “NHBE cytotoxicity assay” is above 50 µM; in the data set “Huh-7 cytotoxicity assay”, above 44.4 µM.

`CCC(CC)COC(=O)[C@H](C)NP(=O)(OC[C@@]1(C#N)O[C@@H](c2ccc3c(N)ncnn23)[C@H](O)[C@@H]1O)Oc1ccccc1` (stereo partly drawn) [Compound 2, reference compound]: the half-maximal effective concentration (EC50) in the data set with RSV A2 is 75 nM; in the data set on HRV16, 164 nM; in the data set with DENV2 replicon, 5.54 µM. The CC50 at 5 days is 29.1 µM in the data set “NHBE cytotoxicity assay” and above 44.4 µM in the data set “Huh-7 cytotoxicity assay”.

For `CCC(CC)COC(=O)[C@H](C)N[P@](=O)(OC[C@@]1(C#N)O[C@@H](c2ccc3c(N)ncnn23)[C@H](O)[C@@H]1O)Oc1ccccc1` [Compound 6, 2-ethylbutyl ((S)-(((2R,3S,4R,5S)-5-(4-aminopyrrolo[2,1-f][1,2,4]triazin-7-yl)-2-cyano-3,4-dihydroxytetrahydrofuran-2-yl)methoxy)(phenoxy)phosphoryl)alaninate], in the data set on RSV A2 (EC50 ratio vs compound 7), the “times as potent as compound 7, RSV NHBE” value was 0.7 times. Further, the EC50 came to 127 nM with RSV A2 and 135 nM in the data set on HRV16. Further, the “times more potent than compound 7, HRV16 HeLa” value in the data set on HRV16 (EC50 ratio vs compound 7) was 1.4 times. Also, the CC50 at 5 days in “NHBE cytotoxicity assay” stood at 24.4 µM; in “Huh-7 cytotoxicity assay”, 17.2 µM.

On to `C[C@H](N[P@](=O)(OC[C@@]1(C#N)O[C@@H](c2ccc3c(N)ncnn23)[C@H](O)[C@@H]1O)Oc1ccccc1)C(=O)OC1CCCCC1` [Formula I, cyclohexyl ((S)-(((2R,3S,4R,5S)-5-(4-aminopyrrolo[2,1-f][1,2,4]triazin-7-yl)-2-cyano-3,4-dihydroxytetrahydrofuran-2-yl)methoxy)(phenoxy)phosphoryl)-L-alaninate], for which, in the data set with RSV A2 (EC50 ratio vs Formula Ib), the “more potent than the compound of Formula Ib, RSV NHBE” value is 5.1. Also, in the data set with RSV A2 (EC50 ratio vs compound 1), the “more potent relative to compound 1, RSV NHBE” value is around 4.4. Besides, in the data set on RSV A2 (EC50 ratio vs compound 3), the “times more potent relative to compound 3, RSV NHBE” value is “about 9.3 times”. Besides, the “times more potent relative to compound 4, RSV NHBE” value in the data set with RSV A2 (EC50 ratio vs compound 4) is on record as “about 7.1 times”. For the same compound, the “times more potent relative to compound 5, RSV NHBE” value in the data set on RSV A2 (EC50 ratio vs compound 5) was “about 10.0 times”. The EC50 with RSV A2 is 124 nM; with HRV16, 227 nM; in the data set on DENV2 replicon, 2.94 µM. Moreover, in the data set on HRV16 (EC50 ratio vs Formula Ib), the “times more potent than the compound of Formula Ib, HRV16 HeLa” value came out at 2.9 times. Also, the “times more potent relative to compound 1, HRV16 HeLa” value in the data set on HRV16 (EC50 ratio vs compound 1) was “about 4.2 times”. In addition, the “times more potent relative to compound 3, HRV16 HeLa” value in the data set on HRV16 (EC50 ratio vs compound 3) is recorded as “about 6.2 times”. Moreover, the “times more potent relative to compound 4, HRV16 Hela” value in the data set on HRV16 (EC50 ratio vs compound 4) is reported as “about 4.3 times”. In the data set with HRV16 (EC50 ratio vs compound 5), the “times more potent relative to compound 5, HRV16 HeLa” value is given as “about 13.8 times”. Moreover, in the data set on DENV2 replicon (EC50 ratio vs compound 1), the “times more potent than compound 1, DENV huh7 Rep” value was “about 25.0 times”. Moreover, the “times more potent compared to compound 2, DENV huh7 Rep” value in the data set with DENV2 replicon (EC50 ratio vs compound 2) is “about 1.9 times”. Moreover, the CC50 at 5 days in “NHBE cytotoxicity assay” is above 40.1 µM; in “Huh-7 cytotoxicity assay”, above 88.9 µM.
